Source: US7049282B2, “Inhibition of complement action” (Duke University, priority 1999, dated 2006)

Test system: complement binding to the sheep erythrocyte targets
Test: standard assay of inhibition of complement binding (Miletic et al): sheep erythrocytes sensitized with rabbit antibody, C8D human serum
Format: biochemical
Description: In addition to the peptides and derivatives described above, the invention also relates to mimetics of the peptides that have the above-described complement blocking function. The mimetics can be identified using protocols available in the art, including those described by Miletic et al, J. Immunology 156:749 (1996)) which are based on the binding of complement to antibody-sensitized red blood cells and on the binding of complement to solid phase immune complexes. As described below, these protocols can be used to identify complement-blocking peptides and derivatives as well.
Peptides, derivatives and mimetics that block complement function can be identified by incubating a target for an active complement protein, for example, antibody-coated particles (e.g., antibody-sensitized red blood cells) or immune complexes (e.g., bovine serum albumin-anti-bovine serum complexes) bound to a solid support, with the a complement protein or a complement activating system (e.g., containing C3 or C4 or mixtures of complement proteins such as found in serum (e.g., C8 or C9 deficient serum)), in the presence and in the absence of the test agent (peptide, derivative or mimetic). […] The amount of binding can be determined using any of a variety of approaches, including using radiolabeled anti-complement protein IgG. […]

Sequence: WESNGQPENN
- activity in inhibiting complement binding (IgG fragments and peptides isolated from digests): highly active
- activity in complement inhibition (synthesized peptides): highly active
